# Reference: the supplement of paper PMC11061612
# Legend:
# Assay in all cases: Bliss excess, mean over the matrix (fraction); higher = more synergy
# [1] = system: A3-KAW (B-Cell Non-Hodgkin's Lymphoma)
# Method in brief: (§1)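 Cell lines grown in DMEM/F12 or RPMI with 10% FBS were plated in 1536-well plates and held 24 hours at 37°C, 5% CO2 before 72 hours of exposure to two-drug dose matrices, with DMSO typically at 0.2%. CellTiter-Glo 2.0 luminescence gave viability, which was converted to inhibition. Vehicle wells were set to 0 and blank wells to 1. Combination Emax is the second-highest inhibition in the matrix, and Bliss excess is the observed combination effect minus the expected EA + EB − EA·EB, where EA and EB are the single-agent effects.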
# [2] = system: A498 (Kidney Carcinoma)
# Method in brief: as §1
# [3] = system: A549 (Lung Adenocarcinoma)
# Method in brief: as §1
# [4] = system: BICR22 (Oral Cavity Carcinoma)
# Method in brief: as §1
# [5] = system: CAPAN-2 (Pancreatic Carcinoma)
# Method in brief: as §1
# [6] = system: CCK-81 (Colorectal Carcinoma)
# Method in brief: as §1
# [7] = system: COLO-824 (Breast Carcinoma)
# Method in brief: as §1
# [8] = system: COR-L311 (Small Cell Lung Carcinoma)
# Method in brief: as §1
# [9] = system: ECC10 (Gastric Carcinoma)
# Method in brief: as §1
# [10] = system: FU97 (Gastric Carcinoma)
# Method in brief: as §1
# [11] = system: Hs-445 (Non-Cancerous)
# Method in brief: as §1
# [12] = system: JSC-1 (B-Cell Non-Hodgkin's Lymphoma)
# Method in brief: as §1
# [13] = system: KARPAS-422 (B-Cell Non-Hodgkin's Lymphoma)
# Method in brief: as §1
# [14] = system: LN-405 (Glioblastoma)
# Method in brief: as §1
# [15] = system: NCI-H1650 (Lung Adenocarcinoma)
# Method in brief: as §1
# [16] = system: NCI-H1666 (Lung Adenocarcinoma)
# Method in brief: as §1
# [17] = system: NCI-H64 (Small Cell Lung Carcinoma)
# Method in brief: as §1
# [18] = system: ONS-76 (Other Solid Carcinomas)
# Method in brief: as §1
# [19] = system: PA-1 (Ovarian Carcinoma)
# Method in brief: as §1
# [20] = system: SK-MES-1 (Squamous Cell Lung Carcinoma)
# Method in brief: as §1
SMILES,Bliss excess [1],Bliss excess [2],Bliss excess [3],Bliss excess [4],Bliss excess [5],Bliss excess [6],Bliss excess [7],Bliss excess [8],Bliss excess [9],Bliss excess [10],Bliss excess [11],Bliss excess [12],Bliss excess [13],Bliss excess [14],Bliss excess [15],Bliss excess [16],Bliss excess [17],Bliss excess [18],Bliss excess [19],Bliss excess [20]
"COc1cccc(OCCCN)c1-c1cc(Nc2cnc(C#N)cn2)n[nH]1 [Prexasertib] + Cc1cc2ncnn2cc1Nc1ncc2c(n1)n(C1CCOCC1)c(=O)n2C [AZD7648] (first compound max 1 µM, 7x7, partner max 10 µM)",0.0126,-0.0206,0.0532,0.0594,-0.0045,-0.0134,-0.01,-0.0289,0.006,-0.0265,-0.02,-0.0189,-0.0787,-0.017,0.0011,-0.0176,-0.0242,-0.031,0.0205,-0.0411
"COc1cccc(OCCCN)c1-c1cc(Nc2cnc(C#N)cn2)n[nH]1 [Prexasertib] + O=C(c1cc(Cc2n[nH]c(=O)c3ccccc23)ccc1F)N1CCN(C(=O)C2CC2)CC1 [Olaparib] (first compound max 1 µM, 7x7, partner max 10 µM)",-0.0146,-0.0622,-0.0109,-0.0685,-0.169,-0.12,-0.0481,-0.101,-0.0685,-0.0288,-0.0358,-0.0179,-0.044,0.0837,-0.0152,-0.0096,-0.0438,-0.123,0.0083,-0.0174
"COc1cc2c(cc1OCCCCCOc1cc3c(cc1OC)C(=O)N1C=C(C)C[C@H]1C=N3)N=C[C@@H]1CC(C)=CN1C2=O [SG3199] + O=C(c1cc(Cc2n[nH]c(=O)c3ccccc23)ccc1F)N1CCN(C(=O)C2CC2)CC1 [Olaparib] (first compound max 0.001 µM, 7x7, partner max 10 µM)",-0.0286,-0.0336,-0.0226,-0.0473,-0.0506,0.0003,-0.03,0.0282,-0.0238,-0.0513,-0.0116,-0.0344,-0.0044,0.0323,-0.0575,-0.0477,-0.0539,-0.0635,0.0131,-0.0267
"CCc1c2c(nc3ccc(O)cc13)-c1cc3c(c(=O)n1C2)COC(=O)[C@]3(O)CC [SN-38] + CN(C)CCCOc1ccc(-c2ccc3ncc4c(c3c2)n(C2CCOCC2)c(=O)n4C)cn1 [AZD0156] (first compound max 0.3 µM, 7x7, partner max 1 µM)",0.0988,-0.0444,0.0128,0.0243,-0.0468,0.135,0.0473,-0.152,-0.143,-0.0484,-0.018,-0.0046,-0.0862,-0.0028,-0.0079,0.0313,-0.0365,0.0091,0.0713,-0.0272
"C[C@@H](c1ccc2nccn2c1)n1nnc2ncc(-c3cnn(C)c3)nc21 [Savolitinib] + CC1(C)CCC(CN2CCN(c3ccc(C(=O)NS(=O)(=O)c4ccc(NCC5CCOCC5)c([N+](=O)[O-])c4)c(Oc4cnc5[nH]ccc5c4)c3)CC2)=C(c2ccc(Cl)cc2)C1 [Venetoclax] (first compound max 1 µM, 7x7, partner max 1 µM)",-0.023,-0.0973,-0.0378,-0.0353,-0.0682,-0.0615,-0.0178,-0.022,0.0258,-0.0344,-0.0642,-0.0638,-0.0282,-0.0464,-0.0716,-0.0595,0.0032,-0.0468,-0.0163,-0.0505
"C[C@@H](c1ccc2nccn2c1)n1nnc2ncc(-c3cnn(C)c3)nc21 [Savolitinib] + Cc1c2c(nn1C)CSCc1cc(n(C)n1)CSc1cc(c3ccccc3c1)OCCCc1c(C(=O)O)n(C)c3c-2c(Cl)ccc13 [AZD5991] (first compound max 1 µM, 7x7, partner max 1 µM)",-0.0499,-0.032,-0.0279,-0.0321,-0.0206,-0.0402,-0.0212,-0.0246,0.0229,-0.0118,-0.0407,-0.0434,-0.0462,0.0023,-0.0634,-0.0577,-0.021,-0.0219,-0.0266,-0.0361
"Cn1cnc2c(F)c(Nc3ccc(Br)cc3Cl)c(C(=O)NOCCO)cc21 [Selumetinib] + C=CCn1c(=O)c2cnc(Nc3ccc(N4CCN(C)CC4)cc3)nc2n1-c1cccc(C(C)(C)O)n1 [AZD1775] (first compound max 10 µM, partner max 1 µM)",-0.0575,-0.0218,-0.0741,-0.0362,0.033,-0.0167,-0.105,-0.0518,-0.0058,0.0052,-0.133,-0.0432,-0.0508,-0.0962,-0.0792,-0.0542,-0.005,-0.0452,-0.001,-0.0469
"Cn1cnc2c(F)c(Nc3ccc(Br)cc3Cl)c(C(=O)NOCCO)cc21 [Selumetinib] + CC(C)n1c(=O)n(C)c2cnc3cc(F)c(-c4ccc(OCCCN5CCCCC5)nc4)cc3c21 [AZD1390] (first compound max 10 µM, 7x7, partner max 0.3 µM)",0.0678,-0.0489,-0.0534,-0.027,-0.0005,0.0157,-0.018,-0.0541,0.0038,-0.0344,-0.0425,-0.0477,-0.032,-0.0518,-0.0572,0.0058,-0.0279,-0.0108,0.0162,-0.0487
"Cn1cnc2c(F)c(Nc3ccc(Br)cc3Cl)c(C(=O)NOCCO)cc21 [Selumetinib] + CCN(CCO)CCCOc1ccc2c(Nc3cc(CC(=O)Nc4cccc(F)c4)[nH]n3)ncnc2c1 [AZD2811] (first compound max 10 µM, 7x7, partner max 1 µM)",0.165,0.002,0.0248,-0.0731,0.0517,0.0101,-0.0218,-0.0546,-0.094,-0.0013,0.013,0.203,0.0206,-0.0367,-0.0333,-0.0506,0.0312,-0.0464,-0.0998,-0.048
"Cn1cnc2c(F)c(Nc3ccc(Br)cc3Cl)c(C(=O)NOCCO)cc21 [Selumetinib] + C[C@@H]1COCCN1C2=NC(=NC(=C2)C3(CC3)[S@](=N)(=O)C)C4=C5C=CNC5=NC=C4 [AZD6738] (first compound max 10 µM, 7x7, partner max 10 µM)",0.061,-0.023,-0.0173,-0.0834,0.0596,0.0233,-0.0111,-0.056,0.0198,0.0267,-0.0473,0.0244,-0.0396,-0.0448,-0.0315,-0.0124,-0.0464,-0.0914,0.0267,-0.025
"CC1(C)CCC(CN2CCN(c3ccc(C(=O)NS(=O)(=O)c4ccc(NCC5CCOCC5)c([N+](=O)[O-])c4)c(Oc4cnc5[nH]ccc5c4)c3)CC2)=C(c2ccc(Cl)cc2)C1 [Venetoclax] + C1CN(CCC1(C(=O)N[C@@H](CCO)C2=CC=C(C=C2)Cl)N)C3=NC=NC4=C3C=CN4 [Capivasertib] (first compound max 1 µM, 7x7, partner max 3 µM)",-0.0468,-0.121,-0.059,-0.0249,-0.0658,-0.039,0.0048,-0.0022,-0.0202,-0.0295,0.0344,-0.0613,0.0459,-0.0712,-0.0329,-0.0541,0.0083,-0.114,-0.0541,-0.044
"CC1(C)CCC(CN2CCN(c3ccc(C(=O)NS(=O)(=O)c4ccc(NCC5CCOCC5)c([N+](=O)[O-])c4)c(Oc4cnc5[nH]ccc5c4)c3)CC2)=C(c2ccc(Cl)cc2)C1 [Venetoclax] + C=CCn1c(=O)c2cnc(Nc3ccc(N4CCN(C)CC4)cc3)nc2n1-c1cccc(C(C)(C)O)n1 [AZD1775] (first compound max 1 µM, partner max 1 µM)",-0.0298,-0.0031,-0.0366,0.0453,-0.0013,-0.066,0.0202,-0.104,0.0951,0.0519,0.127,-0.0281,0.0389,0.0151,-0.0298,-0.0228,0.0168,0.0043,0.0034,-0.0237
"CC1(C)CCC(CN2CCN(c3ccc(C(=O)NS(=O)(=O)c4ccc(NCC5CCOCC5)c([N+](=O)[O-])c4)c(Oc4cnc5[nH]ccc5c4)c3)CC2)=C(c2ccc(Cl)cc2)C1 [Venetoclax] + CCN(CCO)CCCOc1ccc2c(Nc3cc(CC(=O)Nc4cccc(F)c4)[nH]n3)ncnc2c1 [AZD2811] (first compound max 1 µM, 7x7, partner max 1 µM)",-0.0238,-0.0503,-0.0668,-0.0138,-0.0114,-0.0122,0.0087,0.0261,0.0068,0.024,0.0894,0.0485,0.242,0.0185,0.0046,0.0171,0.173,-0.0244,0.0002,-0.0139
"CC1(C)CCC(CN2CCN(c3ccc(C(=O)NS(=O)(=O)c4ccc(NCC5CCOCC5)c([N+](=O)[O-])c4)c(Oc4cnc5[nH]ccc5c4)c3)CC2)=C(c2ccc(Cl)cc2)C1 [Venetoclax] + CN(C)CCCOc1ccc(-c2ccc3ncc4c(c3c2)n(C2CCOCC2)c(=O)n4C)cn1 [AZD0156] (first compound max 1 µM, 7x7, partner max 1 µM)",-0.0485,-0.029,-0.0586,-0.0381,-0.0191,-0.0054,0.0588,0.0654,0.0243,-0.0293,-0.035,0.0102,0.0398,-0.0256,-0.0361,-0.0085,-0.0149,-0.054,0.0367,-0.0106
